Experimental data published in the supplement of paper PMC5908809.

Experiments:
[1] = tested on: normal NK cells expanded with K562-aAPC; experiment: drug sensitivity score (DSS) (DSS units); higher = more sensitive; extreme values may be limits of the assay; conditions: 72 h; IL-2 2.5 ng/mL
Method: (§1)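 Drug sensitivity and resistance testing on K562-aAPC-expanded normal NK cells: 5 concentrations (10-fold steps over a 10,000-fold range), 72 h at 37 °C, viability by CellTiter-Glo normalised to DMSO and benzethonium chloride controls; DSS from the fitted curve.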

[2] = tested on: YT (IL-2 2.5 ng/mL); experiment: percent inhibition of viability; higher = more inhibition; conditions: 72 h
[3] = tested on: KHYG-1 (IL-2 2.5 ng/mL); experiment: as above; conditions: 72 h
[4] = tested on: normal primary NK cells, pool 2 (3 donors) (IL-2 2.5 ng/mL); experiment: as above; conditions: 72 h
[5] = tested on: NK-YS (IL-2 2.5 ng/mL); experiment: as above; conditions: 72 h
[6] = tested on: normal primary NK cells, pool 1 (3 donors), resting (IL-2 0 ng/mL); experiment: as above; conditions: 72 h
[7] = tested on: normal primary NK cells, pool 3 (3 donors) (IL-2 2.5 ng/mL); experiment: as above; conditions: 72 h
[8] = tested on: KAI3 (IL-2 2.5 ng/mL); experiment: as above; conditions: 72 h
[9] = tested on: NK-92 (IL-2 2.5 ng/mL); experiment: as above; conditions: 72 h
[10] = tested on: DERL-7 (IL-2 2.5 ng/mL); experiment: as above; conditions: 72 h
[11] = tested on: NKL (IL-2 2.5 ng/mL); experiment: as above; conditions: 72 h
[12] = tested on: normal primary NK cells, pool 1 (3 donors) (IL-2 2.5 ng/mL); experiment: as above; conditions: 72 h
[13] = tested on: IMC-1 (IL-2 20 ng/mL); experiment: as above; conditions: 72 h
[14] = tested on: SNK-6 (IL-2 2.5 ng/mL); experiment: as above; conditions: 72 h
[15] = tested on: YT (IL-2 2.5 ng/mL); experiment: drug sensitivity score (DSS) (DSS units); higher = more sensitive; extreme values may be limits of the assay; conditions: 72 h
[16] = tested on: KHYG-1 (IL-2 2.5 ng/mL); experiment: as above; conditions: 72 h
[17] = tested on: normal primary NK cells, pool 2 (3 donors) (IL-2 2.5 ng/mL); experiment: as above; conditions: 72 h
[18] = tested on: NK-YS (IL-2 2.5 ng/mL); experiment: as above; conditions: 72 h
[19] = tested on: normal primary NK cells, pool 1 (3 donors), resting (IL-2 0 ng/mL); experiment: as above; conditions: 72 h
[20] = tested on: normal primary NK cells, pool 3 (3 donors) (IL-2 2.5 ng/mL); experiment: as above; conditions: 72 h
[21] = tested on: KAI3 (IL-2 2.5 ng/mL); experiment: as above; conditions: 72 h
[22] = tested on: NK-92 (IL-2 2.5 ng/mL); experiment: as above; conditions: 72 h
[23] = tested on: DERL-7 (IL-2 2.5 ng/mL); experiment: as above; conditions: 72 h
[24] = tested on: NKL (IL-2 2.5 ng/mL); experiment: as above; conditions: 72 h
[25] = tested on: normal primary NK cells, pool 1 (3 donors) (IL-2 2.5 ng/mL); experiment: as above; conditions: 72 h
[26] = tested on: IMC-1 (IL-2 20 ng/mL); experiment: as above; conditions: 72 h
[27] = tested on: SNK-6 (IL-2 2.5 ng/mL); experiment: as above; conditions: 72 h
[28] = tested on: normal NK cells expanded with K562-aAPC; experiment: percent inhibition of viability; higher = more inhibition; conditions: 72 h, IL-2 2.5 ng/mL
Method: as §1

C[C@]1(O)C[C@@H](c2nc(-c3ccc4ccc(-c5ccccc5)nc4c3)c3c(N)nccn32)C1 [Linsitinib] (max concentration tested 10000 nM)
Conditions	drug sensitivity score
[1]	0
[15]	0.72
[16]	0
[17]	1.67
[18]	0
[19]	3.19
[20]	0.23
[21]	0
[22]	3.33
[23]	0
[24]	0.01
[25]	0.79
[26]	0
[27]	0

percent inhibition of viability [%]
Conditions	1 nM	10 nM	100 nM	1000 nM	10000 nM
[2]	1.95	2.48	2.32	5.99	17.4
[3]	-4.45	-3.38	-4.33	0.38	8.9
[4]	-2.53	1.1	-5.12	3.42	27.6
[5]	-6.48	-5.34	-2.18	3.9	7.93
[6]	-20.4	-14.2	17.7	8.71	42.2
[7]	-0.78	1.11	5.04	-1.16	15.8
[8]	6.27	-1.21	-4.49	-3.92	-0.2
[9]	2.33	5.73	13	14.5	29.1
[10]	-5.4	6.82	-0.65	-2.2	7.81
[11]	-9.46	-15.4	-8.54	-9.73	12.4
[12]	-5.96	-9.98	-7.82	-7.33	27.3
[13]	-3.5	-2.97	-5.08	-2.76	-3.58
[14]	5.21	-12.6	-15.2	-16.7	-11
[28]	-3.84	-4.8	-1.86	-1.74	2.14

NC(=O)N1CCC(CC(=O)N2CCC([C@H]3c4ncc(Br)cc4CCc4cc(Cl)cc(Br)c43)CC2)CC1 [Lonafarnib] (max concentration tested 10000 nM)
Conditions	drug sensitivity score
[1]	1.95
[15]	6.47
[16]	13
[17]	6.83
[18]	12.2
[19]	11.6
[20]	4.3
[21]	6.28
[22]	7.81
[23]	9.51
[24]	4.21
[25]	8.02
[26]	1.66
[27]	6.27

percent inhibition of viability [%]
Conditions	1 nM	10 nM	100 nM	1000 nM	10000 nM
[2]	-2.94	-2.27	4.51	28.1	60.1
[3]	-3.98	-2.08	3.33	67.6	83.9
[4]	-4.12	2.21	1.62	17.7	73.4
[5]	-6.93	-2.78	13.2	56.3	79.7
[6]	-4.29	2.54	32.3	35.8	90
[7]	-2.09	0.34	2.3	9.06	52.3
[8]	-4.05	0.27	9.71	30.5	38.6
[9]	-13	-12.8	-0.32	39.8	57.2
[10]	3.48	0.48	5.47	44.5	73
[11]	-11.3	-10.4	-4.09	19.2	37.3
[12]	-10.4	-3.37	6.08	19.4	88.9
[13]	-4.85	-3.21	-6.32	-1.06	36.6
[14]	3.51	1.11	8.58	31.1	33.3
[28]	-2.48	-4.83	1.81	10.5	25.2

Cn1cc(-c2cnn3c(N)c(Br)c([C@@H]4CCCNC4)nc23)cn1 [MK-8776] (max concentration tested 2500 nM)
Conditions	drug sensitivity score
[1]	4.51
[15]	0
[16]	10.2
[17]	0.64
[18]	4.58
[19]	0.68
[20]	0
[21]	7.81
[22]	3.39
[23]	4.16
[24]	7.86
[25]	2.16
[26]	0
[27]	2.97

percent inhibition of viability [%]
Conditions	0.25 nM	2.5 nM	25 nM	250 nM	2500 nM
[2]	0.02	-2.99	0.3	1.22	7.84
[3]	-1.01	-4.38	-0.53	35.5	96.9
[4]	-8.05	-5.57	-3.65	-0.92	21.5
[5]	-4.27	-8.69	-3.31	4.44	71.2
[6]	-9.91	-16.5	4.6	0.8	20
[7]	-9.21	-3.85	-3.76	-1.26	7.54
[8]	3.31	2.43	4.64	27.4	78.2
[9]	-2.81	3.64	-4.5	1.39	59.4
[10]	-4.26	-3.5	3.67	6.88	55.8
[11]	-4.57	-4.36	-8.73	22.1	81.6
[12]	-5.76	-3.11	7.06	4.82	30.9
[13]	0.83	-1.94	-0.11	-7.96	-12.2
[14]	9.37	1.96	-6.2	5.96	39.8
[28]	-4.61	0.4	-2.28	10.6	52.3

Cc1ccc(NC(=O)c2ccc(CN3CCN(C)CC3)cc2)cc1Nc1nc(-c2cccnc2)cs1 [Masitinib] (max concentration tested 10000 nM)
Conditions	drug sensitivity score
[1]	6.42
[15]	6.67
[16]	6.29
[17]	4.61
[18]	7.84
[19]	5.07
[20]	4.72
[21]	5.72
[22]	4.64
[23]	7.97
[24]	5.08
[25]	5.41
[26]	5.34
[27]	3.3

percent inhibition of viability [%]
Conditions	1 nM	10 nM	100 nM	1000 nM	10000 nM
[2]	0.22	-0.59	-2.17	8.04	97.5
[3]	-4.84	3.44	-1.97	5.87	97.8
[4]	-10.8	-9.27	-8.85	-5.72	90.7
[5]	-1.57	-2.35	1.86	14.4	98.2
[6]	-13.3	-12	9.4	-3	95.5
[7]	-9.21	-14.7	-12.2	-0.94	86.2
[8]	0.17	0.29	-11.5	2.65	96.5
[9]	-1.64	6.19	1.77	-11.2	96.5
[10]	-4.46	4.7	-3.25	14.7	99.9
[11]	-13.2	-15.1	-14.2	-3.8	96.7
[12]	-9.84	-12.7	-4.81	-1.08	98.6
[13]	-6.41	-3.52	-8.01	-3.09	100
[14]	11	9.07	-33.7	-49.3	86.9
[28]	-1.56	-0.88	-2.2	6.06	99.6

Clc1ccc(C(c2ccccc2Cl)C(Cl)Cl)cc1 (stereo not given) [Mitotane] (max concentration tested 10000 nM)
Conditions	drug sensitivity score
[1]	0
[15]	0
[16]	0
[17]	0
[18]	0
[19]	0
[20]	0
[21]	0
[22]	0
[23]	0
[24]	0
[25]	0
[26]	0
[27]	0

percent inhibition of viability [%]
Conditions	1 nM	10 nM	100 nM	1000 nM	10000 nM
[2]	-5.71	-7.2	-6.08	-5.64	-3.1
[3]	-5.54	-6.16	-6.75	-7.76	-6.11
[4]	-6.28	-4.83	-5.23	-1.37	-4.6
[5]	-3.11	-4.91	-8.11	-1.41	-4.03
[6]	-7.77	-15.2	11.9	-9.1	7.07
[7]	-8.66	-9.61	-7	-8.07	0.73
[8]	-6.14	-3.83	-3.7	-6.65	-4.73
[9]	-11.9	-11.6	-10.9	-14.2	-13.7
[10]	-3.98	-2.6	-1.88	-5.27	1.52
[11]	-23.5	-31.7	-25.8	-21.9	-16.6
[12]	-4.65	-4.88	5.61	-1.23	-0.57
[13]	-4	-2.56	-9	-5.63	-8.85
[14]	11.9	12.4	-5.92	-1.09	-8.81
[28]	-3.47	-5.5	-2.42	-6.05	-4.65
